From patent US20240307382A1, “MODULATORS OF THE INTEGRATED STRESS PATHWAY” (Calico Life Sciences LLC, priority 2017, published 2024) come the findings set out here.

pEC50: −log10 of the molar value. A value given as a limit tells only on which side of the number the result lay.

In this experiment the test system is HEK293T cells carrying the ATF4 luciferase reporter. Nature of the experiment: ATF4-Luc assay (ATF4 luciferase reporter, tunicamycin-treated cells). The settings on record: Homo sapiens, HEK-293T, 1 μg/mL tunicamycin, 7 hours. It counts as cell-based. As to the method: In order to test exemplary compounds of the invention in a cellular context, a stable VWMD cell line was first constructed. The ATF4 reporter was prepared by fusing the human full-length ATF4 5′-UTR (NCBI Accession No. BC022088.2) in front of the firefly luciferase (FLuc) coding sequence lacking the initiator methionine as described in Sidrauski et al (eLife 2013). The construct was used to produce recombinant retroviruses using standard methods and the resulting viral supermatant was used to transduce ITEK293T cells, which were then subsequently selected with puromycin to generate a stable cell line.
HTEK293T cells carrying the ATF4 luciferase reporter were plated on polylysine coated 384-well plates (Greiner Bio-one) at 30,000 cells per well. Cells were treated the next day with 1 μg/mL tunicamycin and 200 nM of a compound of Formula (I) for 7 hours. Luminescence was measured using One Glo (Promega) as specified by the manufacturer. Cells were maintained in DMEM with L-glutamine supplemented with 10% heat-inactivated FBS (Gibco) and Antibiotic-Antimycotic solution (Gibco).
Table 2 below summarizes the EC50 data obtained using the ATF4-Luc assay for exemplary compounds of the invention.
In general terms: In a reporter assay the amount or activity of a reporter protein is the signal.
The term pEC50 denotes the EC50 on a negative log10 scale, so that one unit is a factor of ten. Consider `O=C(COc1ccc(Cl)c(F)c1)NC12CCC(NC(=O)c3ccc(OC(F)(F)F)cn3)(C1)C2` [Compound 297, N-{4-[2-(4-chloro-3-fluorophenoxy)acetamido]bicyclo[2.1.1]hexan-1-yl}-5-(trifluoromethoxy)pyridine-2-carboxamide], for which the negative-log EC50 (pEC50) was over 7.30.

Consider `O=C(COc1ccc(Cl)c(F)c1)NC12CCC(NC(=O)c3cc(CO)ccn3)(C1)C2` [Compound 333, N-{4-[2-(4-chloro-3-fluorophenoxy)acetamido]bicyclo[2.1.1]hexan-1-yl}-4-(hydroxymethyl)pyridine-2-carboxamide], for which the negative logarithm of the EC50 (pEC50) was 5.70 to 6.00.

Turning to `N#CCCc1ccc(C(=O)NC23CC(NC(=O)COc4ccc(Cl)c(F)c4)(C2)C3)nc1` [Compound 335, N-{3-[2-(4-chloro-3-fluorophenoxy)acetamido]bicyclo[1.1.1]pentan-1-yl}-5-(2-cyanoethyl)pyridine-2-carboxamide], the negative-log EC50 (pEC50) was 6.60 to 7.30.

On to `O=C(COc1ccc(Cl)c(Cl)c1)NC12CC(NC(=O)c3ccc(Cl)cn3)(C1)C2` [Compound 691, 5-chloro-N-{3-[2-(3,4-dichlorophenoxy)acetamido]bicyclo[1.1.1]pentan-1-yl}pyridine-2-carboxamide], for which the pEC50 was over 7.30.

As for `COc1ccnc(C(=O)NC23CCC(NC(=O)COc4ccc(Cl)c(F)c4)(CC2)C(O)C3)c1` (centres unmarked) [Compound 924, N-{4-[2-(4-chloro-3-fluorophenoxy)acetamido]-3-hydroxybicyclo[2.2.2]octan-1-yl}-4-methoxypyridine-2-carboxamide], the pEC50 was 5.70 to 6.00.

Take `O=C(COc1ccc(Cl)c(F)c1)NC12CCC(NC(=O)c3ccc(-c4ccc(F)cc4)cn3)(CC1)CC2O` (centres unmarked) [Compound 939, N-{4-[2-(4-chloro-3-fluorophenoxy)acetamido]-3-hydroxybicyclo[2.2.2]octan-1-yl}-5-(4-fluorophenyl)pyridine-2-carboxamide]: the negative-log EC50 (pEC50) was 6.00 to 6.60.

For the compound `CCc1cncc(C(=O)NC23CC(NC(=O)COc4ccc(Cl)c(F)c4)(C2)C3)c1` [Compound 948, N-{3-[2-(4-chloro-3-fluorophenoxy)acetamido]bicyclo[1.1.1]pentan-1-yl}-5-ethylpyridine-3-carboxamide], the pEC50 was over 7.30.

Turning to `CCc1cncc(C(=O)NC23CC(NC(=O)COc4ccc(Cl)c(Cl)c4)(C2)C3)c1` [Compound 949, N-{3-[2-(3,4-dichlorophenoxy)acetamido]bicyclo[1.1.1]pentan-1-yl}-5-ethylpyridine-3-carboxamide], the negative-log EC50 (pEC50) is over 7.30.

Regarding `O=C(COc1ccc(Cl)c(F)c1)NC12CCC(NC(=O)c3cnc4cc(F)ccc4n3)(CC1)[C@@H](O)C2` [Compound 950, N-{(2S)-4-[2-(4-chloro-3-fluorophenoxy)acetamido]-2-hydroxybicyclo[2.2.2]octan-1-yl}-6-fluoroquinoxaline-2-carboxamide], the negative-log EC50 (pEC50) is over 7.30.

In the case of `O=C(COc1ccc(Cl)c(F)c1)NC12CC(NC(=O)c3cnc4cc(F)ccc4n3)(C1)C2` [Compound 951, N-{3-[2-(4-chloro-3-fluorophenoxy)acetamido]bicyclo[1.1.1]pentan-1-yl}-6-fluoroquinoxaline-2-carboxamide], the pEC50 was over 7.30.

As to `O=C(COc1ccc(Cl)c(F)c1)NC12CCC(NC(=O)c3cccc(-c4cccc(F)c4)n3)(CC1)CC2O` (centres unmarked) [Compound 952, N-{4-[2-(4-chloro-3-fluorophenoxy)acetamido]-3-hydroxybicyclo[2.2.2]octan-1-yl}-6-(3-fluorophenyl)pyridine-2-carboxamide], the pEC50 was over 7.30.

Turning to `N#Cc1cnccc1NC12CC(NC(=O)COc3ccc(Cl)c(F)c3)(C1)C2` [Compound 953, 2-(4-chloro-3-fluorophenoxy)-N-{3-[(3-cyanopyridin-4-yl)amino]bicyclo[1.1.1]pentan-1-yl}acetamide], the pEC50 is 6.60 to 7.30.

For `O=C(COc1ccc(Cl)c(F)c1)NC12CC(Nc3cccc(-n4ccccc4=O)n3)(C1)C2` [Compound 954, 2-(4-chloro-3-fluorophenoxy)-N-{3-[(2-oxo-2H-[1,2′-bipyridin]-6′-yl)amino]bicyclo[1.1.1]pentan-1-yl}acetamide], the pEC50 was under 5.70.

`O=C(COc1ccc(Cl)c(F)c1)NC12CC(Nc3ccnc(-n4ccnc4)c3)(C1)C2` [Compound 955, 2-(4-chloro-3-fluorophenoxy)-N-(3-{[2-(1H-imidazol-1-yl)pyridin-4-yl]amino}bicyclo[1.1.1]pentan-1-yl)acetamide]: the pEC50 is 6.00 to 6.60.

For `O=C(COc1ccc(Cl)c(F)c1)NC12CC(Nc3cccc(N4CCOCC4)n3)(C1)C2` [Compound 957, 2-(4-chloro-3-fluorophenoxy)-N-(3-{[6-(morpholin-4-yl)pyridin-2-yl]amino}bicyclo[1.1.1]pentan-1-yl)acetamide], the pEC50 is 6.00 to 6.60.

Turning to `O=C(COc1ccc(Cl)c(F)c1)NC12CC(Nc3ccc4ncnc(N5CCOCC5)c4c3)(C1)C2` [Compound 958, 2-(4-chloro-3-fluorophenoxy)-N-(3-{[4-(morpholin-4-yl)quinazolin-6-yl]amino}bicyclo[1.1.1]pentan-1-yl)acetamide], the negative logarithm of the EC50 (pEC50) was 6.60 to 7.30.

For `CN1CCN(c2ncnc3ccc(NC45CC(NC(=O)COc6ccc(Cl)c(F)c6)(C4)C5)cc23)CC1` [Compound 959, 2-(4-chloro-3-fluorophenoxy)-N-(3-{[4-(4-methylpiperazin-1-yl)quinazolin-6-yl]amino}bicyclo[1.1.1]pentan-1-yl)acetamide], the pEC50 was under 5.70.

`COC(=O)c1ccc2nccc(NC34CC(NC(=O)COc5ccc(Cl)c(F)c5)(C3)C4)c2c1` [Compound 960, methyl 4-({3-[2-(4-chloro-3-fluorophenoxy)acetamido]bicyclo[1.1.1]pentan-1-yl}amino)quinoline-6-carboxylate]: the negative-log EC50 (pEC50) is over 7.30.

On to `NC(=O)c1cccc(NC23CC(NC(=O)COc4ccc(Cl)c(F)c4)(C2)C3)n1` [Compound 961, 6-({3-[2-(4-chloro-3-fluorophenoxy)acetamido]bicyclo[1.1.1]pentan-1-yl}amino)pyridine-2-carboxamide], for which the negative-log EC50 (pEC50) was 5.70 to 6.00.

As to `O=C(COc1ccc(Cl)c(F)c1)NC12CC(Nc3cc(N4CCCC4)ccn3)(C1)C2` [Compound 962, 2-(4-chloro-3-fluorophenoxy)-N-(3-{[4-(pyrrolidin-1-yl)pyridin-2-yl]amino}bicyclo[1.1.1]pentan-1-yl)acetamide], the pEC50 is 5.70 to 6.00.

As for `O=C(COc1ccc(Cl)c(F)c1)NC12CC(Nc3cc(N4CCOCC4)ccn3)(C1)C2` [Compound 963, 2-(4-chloro-3-fluorophenoxy)-N-(3-{[4-(morpholin-4-yl)pyridin-2-yl]amino}bicyclo[1.1.1]pentan-1-yl)acetamide], the pEC50 is under 5.70.

For `COC(=O)c1ccnc(NC23CC(NC(=O)COc4ccc(Cl)c(F)c4)(C2)C3)c1` [Compound 964, methyl 2-({3-[2-(4-chloro-3-fluorophenoxy)acetamido]bicyclo[1.1.1]pentan-1-yl}amino)pyridine-4-carboxylate], the negative-log EC50 (pEC50) is under 5.70.

In the case of `CCOC(=O)c1cncc(NC23CC(NC(=O)COc4ccc(Cl)c(F)c4)(C2)C3)c1` [Compound 965, ethyl 5-({3-[2-(4-chloro-3-fluorophenoxy)acetamido]bicyclo[1.1.1]pentan-1-yl}amino)pyridine-3-carboxylate], the pEC50 was 6.00 to 6.60.

Regarding `O=C(COc1ccc(Cl)c(F)c1)NC12CC(Nc3cnc4nccnc4c3)(C1)C2` [Compound 966, 2-(4-chloro-3-fluorophenoxy)-N-{3-[(pyrido[2,3-b]pyrazin-7-yl)amino]bicyclo[1.1.1]pentan-1-yl}acetamide], the pEC50 is 6.00 to 6.60.

In the case of `CN(C(=O)c1cc(C(F)F)no1)C12CCC(NC(=O)COc3ccc(Cl)c(F)c3)(CC1)[C@@H](O)C2` [Compound 967, N-{(3S)-4-[2-(4-chloro-3-fluorophenoxy)acetamido]-3-hydroxybicyclo[2.2.2]octan-1-yl}-3-(difluoromethyl)-N-methyl-1,2-oxazole-5-carboxamide], the negative logarithm of the EC50 (pEC50) was 5.70 to 6.00.

Take `Cc1cc(C(=O)N(C)C23CCC(NC(=O)COc4ccc(Cl)c(Cl)c4)(CC2)[C@@H](O)C3)on1` [Compound 968, N-{(3S)-4-[2-(3,4-dichlorophenoxy)acetamido]-3-hydroxybicyclo[2.2.2]octan-1-yl}-N,3-dimethyl-1,2-oxazole-5-carboxamide]: the pEC50 was 5.70 to 6.00.

As to `O=C(COc1ccc(Cl)c(F)c1)NC12CCC(NC(=O)c3coc(C(F)F)n3)(CC1)C[C@@H]2O` [Compound 969, N-{(3S)-4-[2-(4-chloro-3-fluorophenoxy)acetamido]-3-hydroxybicyclo[2.2.2]octan-1-yl}-2-(difluoromethyl)-1,3-oxazole-4-carboxamide], the negative logarithm of the EC50 (pEC50) is over 7.30.

On to `CC(O)c1ncc(C(=O)NC23CCC(NC(=O)COc4ccc(Cl)c(F)c4)(CC2)CC3)s1` (centres unmarked) [Compound 970, N-{4-[2-(4-chloro-3-fluorophenoxy)acetamido]bicyclo[2.2.2]octan-1-yl}-2-(1-hydroxyethyl)-1,3-thiazole-5-carboxamide], for which the negative logarithm of the EC50 (pEC50) is under 5.70.

For the compound `O=C(COc1ccc(Cl)c(Cl)c1)NC12CC(NC(=O)c3cc(O)c4cc(Cl)ccc4n3)(C1)C2` [Compound 971, 6-chloro-N-{3-[2-(3,4-dichlorophenoxy)acetamido]bicyclo[1.1.1]pentan-1-yl}-4-hydroxyquinoline-2-carboxamide], the pEC50 is over 7.30.
